US10766952B2, “Methods for reducing migraine frequency in a subject in need thereof” (Beth Israel Deaconess Medical Center, Inc., priority 2017, dated 2020)

Columns and labels:
[1] = test system: CGRP activity (skin blood flow after saphenous nerve stimulation); experiment: Skin vasodilatation induced by stimulation of rat saphenous nerve; format: in vivo; conditions: 400 nmol/kg i.v., 3-5 minutes before stimulation; FIG. 2A, 2B
Protocol: To test antagonist activity of anti-CGRP antibodies, effect of the antibodies on skin vasodilatation by stimulation of rat saphenous nerve was tested using a rat model described previously. Escott et al., Br. J. Pharmacol. 110:772-776, 1993. In this rat model, electrical stimulation of saphenous nerve induces release of CGRP from nerve endings, resulting in an increase in skin blood flow. Blood flow in the foot skin of male Sprague Dawley rats (170-300 g, from Charles River Hollister) was measured after saphenous nerve stimulation. Rats were maintained under anesthesia with 2% isoflurane. Bretylium tosylate (30 mg/kg, administered i.v.) was given at the beginning of the experiment to minimize vasoconstriction due to the concomitant stimulation of sympathetic fibers of the saphenous nerve. Body temperature was maintained at 37° C. by the use of a rectal probe thermostatically connected to a temperature controlled heating pad. […]
For experiments shown in FIGS. […] Skin blood flow, measured as blood cell flux, was monitored with a laser Doppler flow meter. […]
For experiments shown in FIGS. 4A and 4B, saphenous nerve was exposed surgically before antibody administration. […] Skin blood flow, measured as blood cell flux, was monitored with a laser Doppler flow meter. […]

[2] = test system: naïve central trigeminovascular neurons; conditions: Storer et al., 2004; cited from earlier work

| Compound | blood flow increase stimulated by electronic pulses on saphenous nerve [1] | responses to electrical stimulation of the superior sagittal sinus and microiontophoretic administration of L-glutamate [2] |
| --- | --- | --- |
| CGRP 8-37: positive control compound (vasodilatation antagonist) | inhibited |  |
| NCCCC[C@H](NC(=O)[C@@H](Cc1cc(Br)c(O)c(Br)c1)NC(=O)N1CCC(N2Cc3ccccc3NC2=O)CC1)C(=O)N1CCN(c2ccncc2)CC1 [BIBN4096BS] |  | inhibits |
